The source of these data is patent US20100190182A1, “DIAGNOSTIC COMPOSITION AND METHOD FOR THE DETECTION OF A TRICHINELLA INFECTION” (priority 2007, published 2010).

Test [1] relates to anti-FLAG M2 monoclonal antibody. Briefly: FPA analysis of FLAG model peptide tracers with anti-FLAG antibody. It is filed as binding. Particulars: TBS pH 7.2. The text has this:
The FLAG peptide (a well known tag, e.g. used for immuno affinity purification) was used as a model peptide to develop a labelling strategy for peptide tracers which allows chemical linking of a fluorophore to the peptide to reduce or inhibit rotation of the fluorophore relative to the peptide. The FLAG peptide and an elongated FLAG peptide were used to and coupled to 5-Carboxyfluorescein (5-CF) with a linker containing the following amino acid composition
FPA analysis of the FLAG Model peptide shown in Table 1 was performed by the following procedure.
The FLAG Model peptide tracers were diluted in TBS (containing 25 mM Tris, 0.15M NaCl, NP40 0.05%, pH 7.2) at a concentration of 8.1 nM or 2.7 nM, respectively in a single well of a black colored 96-well plate. The plate was incubated for 2 minutes at room temperature on an orbital shaker set at 1350 rpm and then incubated for another minute without shaking. Blank measurement of the sample was then performed by reading the fluorescence polarisation in a fluorescence reader (Safir2, Tecan, Switzerland) with excitation and emission wavelength set at 470 nm and 520 nm, respectively.
Then, 1, 3 or 10 molar equivalence of the anti-FLAG M2 monoclonal antibody (Sigma, Switzerland), respectively, were added and the plate was incubated at room temperature with shaking (1350 rpm) for 3 minutes and then for an additional minute without shaking. Then the plate was measured.
(§1) The mP values were calculated according to the following formula: […]
(§2) The ΔmP values were obtained by subtracting the mP values of the negative serum from the positive sera:
ΔmP=mPpositive serum−mPnegative serum

Test [2] relates to Trichinella positive serum (antibodies against Trichinella). In words: FPA discrimination between Trichinella positive and Trichinella negative serum. Format: binding. Particulars: mP positive serum minus mP negative serum; tracer 5 nM; buffer differs per tracer as listed in Table 2. Here is the method:
Table 2 depicts for some of the Trichinella peptides their ability to discriminate between a Trichinella positive and a Trichinella negative serum sample using fluorescence polarisation assay (FPA).
FPA analysis of the tracers shown in Table 2 was performed by the following procedure. A […] aliquot of the positive or negative serum was diluted with […] of buffer (PBS with detergent as indicated in Table 2) in a single well of a black coloured 96-well plate. The plate was incubated for 2 minutes at room temperature on an orbital shaker set at 1350 rpm and then incubated for another minute without shaking. Blank measurement of the sample was then performed by reading the fluorescence polarisation in a fluorescence reader (Safire2, Tecan, Switzerland) with excitation and emission wavelength set at 470 nm and 520 nm, respectively. Then, […] tracer was added to the reaction mixture to a final concentration of 5 nM and the plate was incubated at room temperature with shaking (1350 rpm) for 15 minutes and then for an additional minute without shaking. Then the plate was measured.
as §1, §2
ΔmP=mPpositive serum=mPnegative serum

Where [3] appears, read: tracer 2.7 nM, 1 molar equivalent anti-FLAG antibody.
[4] abbreviates: tracer 2.7 nM, 3 molar equivalents anti-FLAG antibody.
[5] abbreviates: tracer 2.7 nM, 10 molar equivalents anti-FLAG antibody.
[6] abbreviates: tracer 8.1 nM, 1 molar equivalent anti-FLAG antibody.
[7] abbreviates: tracer 8.1 nM, 3 molar equivalents anti-FLAG antibody.
[8] abbreviates: tracer 8.1 nM, 10 molar equivalents anti-FLAG antibody.

Where no end group is shown, it is not given here. The star is where a group is joined. 5FAM = O=C1OC2(c3ccc(O)cc3Oc3cc(O)ccc32)c2ccc(C(=O)*)cc21

Consider “5-CF-Pro-Gly(9)-Asp-Tyr-Lys-Asp-Asp-Asp-Asp-Lys [S-CF-Pro-Gly(9)-FLAG]”, for which the ΔmP values in test [1] (setting [3]) is 5 mP; in test [1] (setting [4]), 15 mP; in test [1] (setting [5]), 33 mP; in test [1] (setting [6]) it was 14 mP; in test [1] (setting [7]), 33 mP; in test [1] (setting [8]), 62 mP.
Consider “5-CF-Trp(2)-Gly(9)-Asp-Tyr-Lys-Asp-Asp-Asp-Asp-Lys (5FAM-WWGGGGGGGGGDYKDDDDK) [5-CF-Trp(2)-Gly(9)-FLAG, FLAG model peptide tracer coupled to 5-Carboxyfluorescein via Trp-Trp linker]”, for which the ΔmP values in test [1] (setting [3]) is given as 5 mP; in test [1] (setting [4]) it was 35 mP; in test [1] (setting [5]), 97 mP; in test [1] (setting [6]), 37 mP; in test [1] (setting [7]), 78 mP; in test [1] (setting [8]), 124 mP.
As for “5-CF-Trp-Gly(9)-Asp-Tyr-Lys-Asp-Asp-Asp-Asp-Lys (5FAM-WGGGGGGGGGDYKDDDDK) [5-CF-Trp-Gly(9)-FLAG, FLAG model peptide tracer coupled to 5-Carboxyfluorescein via Trp linker]”, the ΔmP values in test [1] (setting [3]) is 9 mP; in test [1] (setting [4]) it was 27 mP; in test [1] (setting [5]), 55 mP; in test [1] (setting [6]) it was 19 mP; in test [1] (setting [7]) it was 50 mP; in test [1] (setting [8]) it was 86 mP.
“ALRLKRFAK (listed as Trichinella spiralis) [SEQ ID NO 28, peptide of Trichinella spiralis 53 kDa excretory/secretory antigen]”: the ΔmP in test [2] is reported as 41 mP.
On to “KEADKSALRL KRFAKPPKGF F (KEADKSALRLKRFAKPPKGFF; listed as Trichinella spiralis) [SEQ ID NO 27, peptide of Trichinella spiralis 53 kDa excretory/secretory antigen]”, for which the ΔmP in test [2] worked out at 31 mP.
On the same count and under the same terms, then “KPFGDEIDRI LRKAF (KPFGDEIDRILRKAF; listed as Trichinella spiralis) [SEQ ID NO 26, peptide of Trichinella spiralis 53 kDa excretory/secretory antigen]”, with 31 mP.
In turn, “MHKITHKSIV SRHTFAVYLL VSGQK (MHKITHKSIVSRHTFAVYLLVSGQK; listed as Trichinella spiralis) [SEQ ID NO 5, peptide of Trichinella spiralis newborn larvae-specific protein SS2; used as FPA tracer]” had a ΔmP in test [2] of 39 mP.
Still for that read-out and setting: then “NNYRGRQGIA GLGML (NNYRGRQGIAGLGML; listed as Trichinella spiralis) [SEQ ID NO 23, peptide of Trichinella spiralis 53 kDa excretory/secretory antigen]”, with 23 mP; and “PTYPSSGSRP TYPSSGSRP (PTYPSSGSRPTYPSSGSRP; listed as Trichinella spiralis) [SEQ ID NO 9, peptide of Trichinella spiralis newborn larvae-specific protein SS2]”, with 66 mP; and “QNERQFDENK LKKLLKPLG (QNERQFDENKLKKLLKPLG; listed as Trichinella spiralis) [SEQ ID NO 20, peptide of Trichinella spiralis 53 kDa excretory/secretory antigen]”, with 28 mP.
Take “QNERQFDENK LKKLLKPLGK LYKTPSD (QNERQFDENKLKKLLKPLGKLYKTPSD; listed as Trichinella spiralis) [SEQ ID NO 19, peptide of Trichinella spiralis 53 kDa excretory/secretory antigen]”: the ΔmP in test [2] came to 33 mP.
On the same count and under the same terms, next, “VGGTDVRPHSH PWQIQLLKSET G (VGGTDVRPHSHPWQIQLLKSETG; listed as Trichinella spiralis) [SEQ ID NO 6, peptide of Trichinella spiralis newborn larvae-specific protein SS2; used as FPA tracer]”: 35 mP.
